Measured values from patent EP0533925A1, “OPTICAL ISOMER OF R-FORM OF DIPHENYL ETHER DERIVATIVE AND HERBICIDE CONTAINING THE SAME AS ACTIVE INGREDIENT” (TEIJIN LIMITED, priority 1990, dated 1991).
Counter-ions that a name gives are not always drawn.

Assays:
Type in all cases: in vivo
Parameters in all cases: key: 0 means the state where the plants are as sound as before the application of the active compound; 1, 2, 3 and 4 mean varying degrees of the enfeebled state of the plants between 0 and 5; 1, 2, 3 and 4 mean varying degrees of the enfeebled state of the plants between 0 and 5; 1, 2, 3 and 4 mean varying degrees of the enfeebled state of the plants between 0 and 5; 1, 2, 3 and 4 mean varying degrees of the enfeebled state of the plants between 0 and 5; 5 is the state where the plants are withered or killed by application of the active compound
Amaranthus mangostanus = assay: Herbicidal activity, foliar application of single compounds (Test Examples 1 to 5); settings: 3 weeks after application
Procedure: (§1) In these examples, all parts means parts by weight, unless otherwise noted. The herbicidal activity was evaluated on a scale of 6 degrees. In other words, 0 means the state where the plants are as sound as before the application of the active compound, while 5 is the state where the plants are withered or killed by application of the active compound, and 1, 2, 3 and 4 mean varying degrees of the enfeebled state of the plants between 0 and 5.
(§2) The diphenyl ethers shown in Table 2 were added to 5000 parts of a mixture of acetone and water (1 : 1 by volume), and 2.6 parts of a nonionic surfactant (Sorpol 2680, tradename) was added to form a solution, so that the ether becomes the prescribed amount in each solution.
(§3) Seeds of plants were sown in the soil, cultivated for 2 to 3 weeks, after germination, then the plants were used for the tests.
(§4) The prepared solution was applied to these plants at the prescribed rate of application in total, then the plants were continuously cultivated for 3 weeks without applying the solution.
(§5) The alphabetical symbols in Tables 2 and 3 represent the following plants, respectively: a: Digitaria adscendens b: Setaria viridis c: Sorghum halepense d: Chenopodium album var. centrorubrum e: Amaranthus mangostanus f: Astragalus sinicus g: Abutilon theophrosti h: Solanum nigrum i: Xanthium strumarium j: Soybean; Glycine max k: Corn; Zea mays Table 2

Astragalus sinicus = assay: as above; settings: 3 weeks after application
Procedure: as §1, §2, §3, §4, §5

Solanum nigrum = assay: as above; settings: 3 weeks after application
Procedure: as §1, §2, §3, §4, §5

Abutilon theophrosti [1] = assay: as above; settings: 3 weeks after application
Procedure: as §1, §2, §3, §4, §5

Soybean; Glycine max = assay: Herbicidal activity, spray of diphenyl ether with N-phosphonomethylglycine derivative (Test Examples 6 to 10); settings: Application 0.375 Kg/ha (117) alone
Procedure: as §1
(§6) In each run, the diphenyl ether derivatives and the N-phosphonomethylglycine derivatives shown in Table 3 (in the indicated mixing ratios) was dissolved in 16 parts by volume of a mixture of water and acetone (1 : 1 by volume; containing 0.05 % of a nonionic surfactant, Sorpol-2680) in the indicated mixing ratio, respectively, to prepare spray solutions.
(§7) The plants tested were grown in vinyl resin pots (diameter 10 cm) filled with soil in a green house for 2 to 3 weeks after germination from seeds or tubers.
(§8) The spray solution was applied to the plants so that the total volume sprayed became 4 cc/100 cm², and the herbicidal activity was examined.
as §5

Xanthium strumarium = assay: as above; settings: Application 0.375 Kg/ha (117) alone
Procedure: as §1, §6, §7, §8, §5

Abutilon theophrosti [2] = assay: as above; settings: Application 0.375 Kg/ha (117) alone
Procedure: as §1, §6, §7, §8, §5

Sorghum halepense = assay: as above; settings: Application 0.375 Kg/ha (117) alone
Procedure: as §1, §6, §7, §8, §5

[3] = Rate of Application 0.016 kg/ha
[4] = Rate of Application 0.031 kg/ha

SMILES: COC(=O)C(C)Oc1cc(Oc2ccc(C(F)(F)F)cc2Cl)ccc1C#N (stereo not drawn) [Compound (1), Methyl α-[2-cyano-5-(2-chloro-4-trifluoromethylphenoxy)phenoxy]propionate]
- herbicidal activity, Plants e (Amaranthus mangostanus; [3]): 5
- herbicidal activity, Plants e (Amaranthus mangostanus; [4]): 5
- herbicidal activity, Plants f (Astragalus sinicus; [3]): 5
- herbicidal activity, Plants f (Astragalus sinicus; [4]): 5
- herbicidal activity, Plants h (Solanum nigrum; [3]): 5
- herbicidal activity, Plants h (Solanum nigrum; [4]): 5
- herbicidal activity, Plants g (Abutilon theophrosti [1]; [3]): 5
- herbicidal activity, Plants g (Abutilon theophrosti [1]; [4]): 5

SMILES: O=C(O)CNCP(=O)(O)O [Compound (117), N-phosphonomethylglycine isopropylammonium salt]
- herbicidal activity, Plants j (Soybean; Glycine max; 3 days after treatment): 0
- herbicidal activity, Plants j (Soybean; Glycine max; 7 days after treatment): 0
- herbicidal activity, Plants j (Soybean; Glycine max; 14 days after treatment): 0
- herbicidal activity, Plants i (Xanthium strumarium; 3 days after treatment): 0
- herbicidal activity, Plants i (Xanthium strumarium; 7 days after treatment): 0
- herbicidal activity, Plants i (Xanthium strumarium; 14 days after treatment): 1
- herbicidal activity, Plants g (Abutilon theophrosti [2]; 3 days after treatment): 0
- herbicidal activity, Plants g (Abutilon theophrosti [2]; 7 days after treatment): 1
- herbicidal activity, Plants g (Abutilon theophrosti [2]; 14 days after treatment): 1
- herbicidal activity, Plants c (Sorghum halepense; 3 days after treatment): 0
- herbicidal activity, Plants c (Sorghum halepense; 7 days after treatment): 0
- herbicidal activity, Plants c (Sorghum halepense; 14 days after treatment): 1
